In PMC10901950, “Neuroprotective and Anti-inflammatory Effects of Rubiscolin-6 Analogs with Proline Surrogates in Position 2” (Neurochemical Research, 2023):
Numbered stars: 1 amine (or outer) side, 2 acyl side, 3 side chain; on linkers, the order of the positions; unused ones are H or OH. Square brackets hold non-standard residues; d marks the D form. Ends that are not written are not given here. Peptide text beside a SMILES is read from it. Nip(3R) = O=C([C@@H]1CCCN([*:1])C1)[*:2]; Dmt = Cc1cc(O)cc(C)c1C[C@H](N)C(=O)O; Inp = O=C(O)C1CCNCC1

Tests used:
[1] = target: T1, κ-opioid receptor (Homo sapiens, UniProt P41145); experiment: Opioid receptor binding assay, [3H]U-69593 competition; settings: CHO cell membranes, 0.5 nM [3H]U-69593, 25 °C, 120 min; mean ± SEM of four experiments in duplicate; read-out: Ki KOR
T1 construct: purchased; host or cells: CHO cells (membranes)
Description: The opioid receptor binding assays were performed using the modified method described elsewhere. Briefly, commercial membranes of Chinese Hamster Ovary (CHO) cells transfected with human opioid receptors were used. The binding affinities for µ-, δ- and κ-opioid receptors were determined by radioligand competition analysis using [^3H]DAMGO, [^3H]deltorphin-2, and [^3H]U-69593, respectively. Membranes were incubated at 25 °C for 120 min with appropriate concentrations of a tested peptide in the presence of 0.5 nM radioligand in a total volume of 0.5 mL of 50 mM Tris/HCl (pH 7.4) containing bovine serum albumin (BSA) (1 mg/mL), bacitracin (50 µg/mL), bestatin (30 µM), and captopril (10 µM). Non-specific binding was determined in the presence of 1 µM naloxone. Incubations were terminated by the rapid filtration through the GF/B Whatman (Brentford, UK) glass fibre strips (pre-soaked for 2 h in 0.5% (v/v) […]) using Millipore Sampling Manifold (Billerica, MA, USA). The filters were washed thrice with 4 mL of ice-cold Tris buffer solution. Packard Tri-Carb 2100 TR liquid scintillation counter (Ramsey, MN, USA) was used to measure the bound radioactivity after overnight extraction of the filters in 4 mL of a Perkin Elmer Ultima Gold scintillation fluid (Wellesley, MA, USA). The data were analyzed by a nonlinear least square regression analysis computer program Graph Pad PRISM 6.0 (Graph Pad Software Inc., San Diego, CA, USA). The values of the inhibitory constants (Ki) were calculated according to the equation of Cheng and Prusoff.
The ability of R-6 and its new analogs to bind to µ-, δ- and κ-opioid receptors was determined by competitive binding assays against [^3H]DAMGO, [^3H][Ile^5,6]deltorphin-2 and [^3H]U-69593, respectively, using membranes of CHO cells transfected with opioid receptors and are summarized in Table 2.

[2] = test system: LPS-stimulated RAW 264.7 cells; experiment: Intracellular ROS formation in LPS-stimulated RAW 264.7 cells; assay type: cell-based, mouse; settings: LPS-stimulated, 24 h; for decrease of ROS levels: peptides 0.1-10 µM
Description: The cytotoxic and anti-inflammatory effects of peptides on RAW 264.7 cells were estimated using MTT assay. Cells were incubated with peptides (0.1–10 µM) for 24 h to assess their cytoprotective activity. In the anti-inflammatory model, RAW 264.7 cells were exposed to LPS (Millipore Sigma, Darmstadt, Germany) at 1 µg/mL in the absence/presence of peptide at non-toxic concentrations (0.1–10 µM). Then, the MTT reagent was added to wells, and cells were incubated for 1.5 h at 37 °C. After this time, MTT was removed, 100 µL DMSO was added, and the resulting absorbance was read in a microplate reader (Synergy 2 BioTek Microplate Reader, Winooski, VT, USA) at 570 nm.
The detection of ROS generated in injured cells was evaluated using the 5(6)-carboxy-2ʹ,7ʹ-dichlorofluorescein diacetate (carboxy-H2DCFDA) reagent (Invitrogen, Bleiswijk, Netherlands). After incubation, cells were washed with ice-cold Phosphate-Buffer Saline (PBS). Then, the carboxyl-H2DCFDA (100 µL, 20 µM) reagent was added and incubated for 1 h at 37 °C. Finally, the fluorescence intensity was measured at wavelengths of […], and ROS levels were presented in percentage of control (non-treated cells).

[3] = test system: SH-SY5Y cells; experiment: Neuroprotection in 6-OHDA-treated SH-SY5Y cells (MTT); assay type: cell-based, human; settings: for neuroprotection after pre-treatment with LY 294002: LY 294002 (PI3-K inhibitor) 20 µM; for neuroprotection after pre-treatment with LY 294002 / neuroprotective effect after pre-treatment with PD 98059: 30 min before peptide and 6-OHDA 100 µM; for neuroprotective effect after pre-treatment with PD 98059: PD 98059 (MEK 1 inhibitor) 50 µM; for peptide neuroprotection with opioid receptor antagonists: β-FNA 10 µM or NLT 10 µM 30 min before peptide (1 and/or 10 µM) and 6-OHDA 100 µM, 24 h
Description: The neuroprotective experiments were performed in an in vitro model of a human neuroblastoma cell line (SH-SY5Y) obtained from the German Collection of Microorganisms and Cell Cultures GmbH (DSMZ) Bank (ACC 209). Cells were cultured in Dulbecco’s Modified Eagle’s Medium: Nutrient Mixture F12 (DMEM:F12) supplemented with 1% antibiotic/antimycotic (Amphotericin B, Penicillin and Streptomycin) (Biowest, Nuaillé, France) and 10% (v/v) Fetal Bovine Serum (FBS) (Biowest, Riverside, MO, USA). The anti-inflammatory experiments were performed in an in vitro model of mouse macrophage-like RAW 264.7 cells, purchased from American Type Culture Collection (ATCC, Manassas, VA, USA). Cells were maintained in DMEM medium (Gibco™, Grand Island, NY) and supplemented with 10% bovine calf serum (BCS) (Gibco™, Grand Island, NY) and 1% penicillin–streptomycin (Sigma-Aldrich, St. Louis, MO, USA). Cell cultures were kept at 37 °C in 5% CO2/humidified air.
Cells were incubated with peptides (0.1–10 µM) for 24 h to assess their cytotoxic activity. In the neuroprotective model, SH-SY5Y cells were exposed to 6-OHDA (100 µM) in the absence/presence of peptide at non-toxic concentrations (0.1–10 µM). When needed, a 30 min pre-incubation step with β-funaltrexamine (β-FNA, µ-opioid receptor antagonist, 10 µM), naltrindole (NLT, δ-opioid receptor antagonist, 10 µM), 2’-amino-3’-methoxyflavone (PD 98059, MAPK kinase 1 (MEK 1) inhibitor, 50 µM) or 2-(4-morpholinyl)-8-phenyl-4H-1-benzopyran-4-one (LY 294002, PI3-K inhibitor, 20 µM). Stimulation was terminated by aspiration of the medium and adding 100 µL MTT (1.2 mM) per well. Cells were incubated for 1 h at 37 °C. After this time, MTT was removed, and 100 µL DMSO was added. The resulting absorbance was read in a microplate reader (Biotek, Epoch/2 microplate reader, Winooski, VT, USA) at 570 nm.
Cell metabolic activity (cytotoxicity) was calculated as the percentage of the value obtained for cells incubated with compounds compared to control cells treated with the medium.

[4] = test system: LPS-stimulated RAW 264.7 cells; experiment: Nitric oxide production in LPS-stimulated RAW 264.7 cells (Griess); assay type: cell-based, mouse; settings: LPS 1 µg/mL, 24 h
Description: The level of NO production was determined in RAW 264.7 cells. Briefly, after cells attachment, they were treated with LPS (Millipore Sigma, Darmstadt, Germany) at 1 µg/mL for 24 h, and then the peptides were added for an additional 24 h. After cells’ treatment, the medium was collected, and the accumulation of NO metabolite in the cell culture supernatant was measured using Griess reagent (1% sulfanilamide and 0.1% naphthylethylenediamine dihydrochloride; Sigma Aldrich), where 50 µL of the supernatant was mixed with 50 µL of Griess reagent (40 mg/mL) in a 96-well plate. After incubation at room temperature and darkness for 10 min, the absorbance was measured at 540 nm. Cells treated with LPS without samples were used as the positive control of the inflammatory response.

[5] = peptide 0.1 µM (lowest concentration)

Row | Compound | Ki [1] [nM] | decrease of ROS levels ([2]; DCFH-DA) [%] | neuroprotection after pre-treatment with LY 294002 [3] | neuroprotective effect after pre-treatment with PD 98059 [3] | peptide neuroprotection with opioid receptor antagonists [3] | reduction of ROS levels ([2]; peptide 0.1 µM, DCFH-DA) | NO level reached (relative to unstimulated control) ([4]; LPS alone exceeded 330%) [%] | effect on LPS-induced NO production [4, 5] | effect on ROS levels ([2]; peptide 0.1 µM) | effect on LPS-induced NO production ([4]; peptide 10 µM)
1 | YPLDLF-NH2 [analog 6, Tyr-Pro-Leu-Asp-Leu-Phe-NH2] | > 1000 |  |  |  |  |  |  |  |  | 
2 | YPLDLF [R-6, rubiscolin-6] | > 1000 | ≤ 40 |  |  |  |  |  |  |  | 
3 | CC(C)C[C@H](NC(=O)C1CCN(C(=O)[C@@H](N)Cc2ccc(O)cc2)CC1)C(=O)N[C@@H](CC(=O)O)C(=O)N[C@@H](CC(C)C)C(=O)N[C@@H](Cc1ccccc1)C(N)=O [analog 7, Tyr-Inp-Leu-Asp-Leu-Phe-NH2] (H-Y[Inp]LDLF-NH2) | > 1000 |  | significantly weakened | didn’t inhibit | did not abolish | about 50% | ~125 | most effectively reduced |  | 
4 | Cc1cc(O)cc(C)c1C[C@H](N)C(=O)N1CCC(C(=O)N[C@@H](CC(C)C)C(=O)N[C@@H](CC(=O)O)C(=O)N[C@@H](CC(C)C)C(=O)N[C@@H](Cc2ccccc2)C(=O)O)CC1 [analog 5, Dmt-Inp-Leu-Asp-Leu-Phe-OH] (H-[Dmt][Inp]LDLF-OH) | > 1000 |  | significantly weakened | didn’t inhibit | some slight µ- and δ-opioid receptor antagonist effect is evident |  |  | most effectively reduced | protective effect | comparable to the level determined in unstimulated cells
5 | Cc1cc(O)cc(C)c1C[C@H](N)C(=O)N1CCC[C@@H](C(=O)N[C@@H](CC(C)C)C(=O)N[C@@H](CC(=O)O)C(=O)N[C@@H](CC(C)C)C(=O)N[C@@H](Cc2ccccc2)C(=O)O)C1 [analog 4, Dmt-(R)-Nip-Leu-Asp-Leu-Phe-OH] (H-[Dmt][Nip(3R)]LDLF-OH) | > 1000 | ≤ 40 |  |  |  |  |  | most effectively reduced |  | 
6 | Cc1cc(O)cc(C)c1C[C@H](N)C(=O)N1CCC[C@H]1C(=O)N[C@@H](CC(C)C)C(=O)N[C@@H](CC(=O)O)C(=O)N[C@@H](CC(C)C)C(=O)N[C@@H](Cc1ccccc1)C(=O)O [analog 1, Dmt-Pro-Leu-Asp-Leu-Phe-OH] (H-[Dmt]PLDLF-OH) | > 1000 | ≤ 40 | significantly weakened | didn’t inhibit | did not abolish |  |  |  |  | 
7 | CC(C)C[C@H](NC(=O)C1CCN(C(=O)[C@@H](N)Cc2ccc(O)cc2)CC1)C(=O)N[C@@H](CC(=O)O)C(=O)N[C@@H](CC(C)C)C(=O)N[C@@H](Cc1ccccc1)C(=O)O [analog 3, Tyr-Inp-Leu-Asp-Leu-Phe-OH] (H-Y[Inp]LDLF-OH) | > 1000 |  | significantly weakened | didn’t inhibit | did not abolish |  |  | most effectively reduced | protective effect | 
8 | CC(C)C[C@H](NC(=O)[C@@H]1CCCN(C(=O)[C@@H](N)Cc2ccc(O)cc2)C1)C(=O)N[C@@H](CC(=O)O)C(=O)N[C@@H](CC(C)C)C(=O)N[C@@H](Cc1ccccc1)C(=O)O [analog 2, Tyr-(R)-Nip-Leu-Asp-Leu-Phe-OH] (H-Y[Nip(3R)]LDLF-OH) | > 1000 | ≤ 40 |  |  |  |  |  |  |  | 
